Data published in the NIST ThermoML archive (doi:10.1016/j.fluid.2013.05.012).
Where “and” joins values, the source holds several entries; their conditions need not be identical. Identical values can stand only once. ± gives the expanded uncertainty stated by the source.

Details: 101.33 kPa, Liquid; for mass density: Vibrating tube method; for viscosity: Vibrating wire viscometry

CCCCCC[n+]1ccn(C)c1.O=S(=O)([N-]S(=O)(=O)C(F)(F)F)C(F)(F)F
Details	mass density [kg/m3]	viscosity
288.15 K	1381.24 ± 1.1	–
293.14 K	–	90.27 ± 2.1 mPa·s
293.16 K	1376.63 ± 1.1	–
298.16 K	1372.04 ± 1.1	–
298.18 K	–	70.9 ± 1.5 mPa·s and 70.95 ± 1.5 mPa·s
303.13 K	–	56.93 ± 1.2 mPa·s
303.15 K	1367.46 ± 1.1	–
303.16 K	1367.45 ± 1.1	–
308.13 K	–	46.15 ± 0.97 mPa·s
308.16 K	1362.88 ± 1.1	–
313.09 K	–	38.05 ± 0.8 mPa·s
313.15 K	1358.32 ± 1.1	–
318.1 K	–	31.74 ± 0.67 mPa·s
318.15 K	1353.76 ± 1.1	–
318.16 K	1353.77 ± 1.1	–
323.1 K	–	26.73 ± 0.56 mPa·s
323.15 K	1349.23 ± 1.1	–
323.16 K	1349.24 ± 1.1	–
328.15 K	1344.72 ± 1.1	–

CCOS(=O)(=O)[O-].CCn1cc[n+](C)c1 [1-ethyl-3-methylimidazolium ethyl sulfate]
Details	mass density	viscosity [mPa·s]
288.15 K	1245.23 ± 1.1 kg/m3	–
288.16 K	1245.23 ± 1.1 kg/m3	–
290.64 K	1243.55 ± 1.1 kg/m3	–
290.65 K	1243.55 ± 1.1 kg/m3	–
293.14 K	1241.85 ± 1.1 kg/m3	128.2 ± 3.2
293.15 K	1241.85 ± 1.1 kg/m3	–
295.65 K	1240.17 ± 1.1 kg/m3 and 1240.15 ± 1.1 kg/m3	–
298.15 K	1238.47 ± 1.1 kg/m3 and 1238.45 ± 1.1 kg/m3	–
298.19 K	–	98.87 ± 2.3
298.2 K	–	98.63 ± 2.3
300.65 K	1236.77 ± 1.1 kg/m3 and 1236.76 ± 1.1 kg/m3	–
303.15 K	1235.08 ± 1.1 kg/m3 and 1235.06 ± 1.1 kg/m3	–
303.16 K	–	77.83 ± 1.7
305.65 K	1233.38 ± 1.1 kg/m3	–
308.15 K	1231.69 ± 1.1 kg/m3	–
308.19 K	–	62.54 ± 1.3
310.64 K	1230.01 ± 1.1 kg/m3	–
310.65 K	1230.01 ± 1.1 kg/m3	–
313.14 K	1228.32 ± 1.1 kg/m3	51.1 ± 1.1
315.65 K	1226.63 ± 1.1 kg/m3 and 1226.64 ± 1.1 kg/m3	–
318.14 K	–	42.22 ± 0.89
318.15 K	1224.95 ± 1.1 kg/m3	–
320.64 K	1223.27 ± 1.1 kg/m3 and 1223.28 ± 1.1 kg/m3	–
323.1 K	–	35.37 ± 0.74
323.14 K	1221.6 ± 1.1 kg/m3	–
323.15 K	1221.6 ± 1.1 kg/m3	–
325.64 K	1219.92 ± 1.1 kg/m3	–
325.65 K	1219.92 ± 1.1 kg/m3	–
328.15 K	1218.26 ± 1.1 kg/m3	–

CCOS(=O)(=O)[O-].CC[n+]1cccc(C)c1 [1-ethyl-3-methylpyridinium ethylsulfate]
Details	mass density	viscosity [mPa·s]
293.13 K	–	181.5 ± 5.2
293.15 K	1225.08 ± 1.1 kg/m3	–
293.16 K	1225.08 ± 1.1 kg/m3	–
295.64 K	1223.43 ± 1.1 kg/m3	–
295.65 K	1223.43 ± 1.1 kg/m3	–
298.15 K	1221.79 ± 1.1 kg/m3	–
298.16 K	1221.8 ± 1.1 kg/m3	–
298.18 K	–	133.7 ± 3.4
298.2 K	–	133.8 ± 3.5
300.65 K	1220.15 ± 1.1 kg/m3	–
300.66 K	1220.15 ± 1.1 kg/m3	–
303.13 K	–	102.1 ± 2.4
303.14 K	1218.51 ± 1.1 kg/m3	–
303.15 K	1218.5 ± 1.1 kg/m3	–
305.64 K	1216.85 ± 1.1 kg/m3	–
305.65 K	1216.85 ± 1.1 kg/m3	–
308.15 K	1215.21 ± 1.1 kg/m3 and 1215.2 ± 1.1 kg/m3	–
308.16 K	–	79.18 ± 1.7
310.65 K	1213.56 ± 1.1 kg/m3	–
310.66 K	1213.56 ± 1.1 kg/m3	–
313.14 K	–	62.73 ± 1.3
313.15 K	1211.91 ± 1.1 kg/m3	–
315.65 K	1210.27 ± 1.1 kg/m3	–
315.66 K	1210.27 ± 1.1 kg/m3	–
318.08 K	–	50.65 ± 1.1
318.15 K	1208.63 ± 1.1 kg/m3 and 1208.64 ± 1.1 kg/m3	–
320.65 K	1207 ± 1.1 kg/m3	–
